Results: patent publication EP3974434B1, “MACROLIDE DERIVATIVES, PREPARATION METHOD AND APPLICATION THEREOF” (Zhejiang Hisun Pharmaceutical Co., Ltd., priority 2019, dated 2020)

Key:
ALK = biological target: T1, ALK (Homo sapiens, UniProt Q9UM73); experiment: HTRF KinEASE-TK kinase activity inhibition assay, ALK; format: biochemical; conditions: ATP 1 µM
T1 construct: purchased SignalChem A19-11G-10
Text: The following method was used to determine the inhibition degrees of the compounds of the present invention on the activity of recombinant human ALK kinase in vitro. In this method, HTRF®KinEASE-TK tyrosine kinase kit (article No. 62TK0PEB) of Cisbio company was used, the principle of the kit was based on time-resolved fluorescence resonance energy transfer (TF-FRET), and the inhibition of the compounds on the activity of the ALK kinase was reflected by determining a phosphorylation degree of a biotinylated polypeptide substrate mediated by ALK kinase. […] The recombinant human ALK was purchased from SignalChem (article number was ALK#A19-11G-10).
The experimental flow was briefly described as follows: a test compound was first dissolved in DMSO to prepare a storage solution, and then diluted in gradient with a buffer provided in the kit. A final concentration of the test compound in the reaction system ranged from 1000 nM to 0.004 nM. An ATP Km value concentration of each ALK protein was determined by using an ATP solution diluted in gradient (Sangon Biotech (Shanghai) Co., Ltd., A600311). […] After incubation, fluorescence intensity values of each well at an excitation wavelength of 304 nm, and emission wavelengths of 620 nm and 665 nM were determined in a TF-FRET mode on a microplate reader, and the fluorescence intensity ratio 665/620 of each well was calculated. […]

TRKA(G667C) = biological target: T2, TRKA(G667C) (Homo sapiens, UniProt P04629, G667C); experiment: HTRF KinEASE-TK kinase activity inhibition assay, TRKA(G667C); format: biochemical; conditions: ATP 1 µM
T2 construct: purchased SignalChem N16-12CG-10
T2 sequence (P04629 33-796 G667C): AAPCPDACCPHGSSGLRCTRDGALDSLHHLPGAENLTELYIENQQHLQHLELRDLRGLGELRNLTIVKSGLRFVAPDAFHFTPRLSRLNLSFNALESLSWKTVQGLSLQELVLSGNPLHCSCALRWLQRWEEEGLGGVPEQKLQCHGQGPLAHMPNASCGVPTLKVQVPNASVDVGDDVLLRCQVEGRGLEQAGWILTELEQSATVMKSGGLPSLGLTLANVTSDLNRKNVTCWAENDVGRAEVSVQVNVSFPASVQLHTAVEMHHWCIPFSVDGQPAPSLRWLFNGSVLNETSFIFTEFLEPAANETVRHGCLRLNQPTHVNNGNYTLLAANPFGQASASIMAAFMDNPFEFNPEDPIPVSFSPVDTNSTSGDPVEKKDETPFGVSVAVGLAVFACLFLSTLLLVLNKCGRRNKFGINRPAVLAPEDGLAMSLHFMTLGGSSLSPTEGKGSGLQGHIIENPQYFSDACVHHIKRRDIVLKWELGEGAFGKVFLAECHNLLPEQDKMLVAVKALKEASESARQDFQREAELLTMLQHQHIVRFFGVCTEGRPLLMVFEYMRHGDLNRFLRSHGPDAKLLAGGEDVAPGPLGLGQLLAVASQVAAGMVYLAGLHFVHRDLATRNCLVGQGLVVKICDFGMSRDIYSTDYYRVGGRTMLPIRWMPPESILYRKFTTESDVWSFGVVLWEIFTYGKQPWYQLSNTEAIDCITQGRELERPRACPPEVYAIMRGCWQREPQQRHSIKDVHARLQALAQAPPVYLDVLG
Text: (§1) The following method was used to determine the inhibition degrees of the compounds of the present invention on the activity of recombinant human NTRK family kinase in vitro. In this method, HTRF®KinEASE-TK tyrosine kinase kit (article number: 62TK0PEB) of Cisbio company was used, and the principle of the kit was based on time-resolved fluorescence resonance energy transfer (TF-FRET), and the inhibition of the compounds on the activity of the NTRK kinase was reflected by determining a phosphorylation degree of a biotinylated polypeptide substrate mediated by NTRK kinase. For detailed experimental operation, please refer to the kit instruction. Recombinant human wild-type NTRK proteins were purchased from Carna bioscience (the article numbers were TRKA #08-186, TRKB #08-187 and TRKC #08-197 respectively), and recombinant human mutant NTRK proteins were purchased from SignalChem (the article numbers were TRKA G595R #N16-12BG-10, TRKA G667C # N16-12CG-10, and TRKC G623R # N18-12CH-10 respectively).
(§2) The experimental methods were operated according to the steps in the kit instruction, and were briefly described as follows: a test compound was first dissolved in DMSO to prepare a storage solution, and then diluted in gradient with a buffer provided in the kit. A final concentration of the test compound in the reaction system ranged from 1,000 nM to 0.004 nM. An ATP Km value concentration of each NTRK protein was determined by using an ATP solution diluted in gradient (Sangon Biotech (Shanghai) Co., Ltd., A600311). According to the Km value obtained, the ATP concentrations in the reaction system were set as 100 µM for TRKA, 10 µM for TRKB, 50 µM for TRKC, 7 µM for TRKA(G595R), 1 µM for TRKA(G667C) and 100 µM for TRKC(G623R). The reaction was carried out in a 384-well microplate. Firstly, the compound and a certain amount of corresponding NTRK protein were added to the wells and incubated for 5 minutes to 10 minutes at room temperature. Then, the ATP solution and the biotinylated polypeptide substrate solution were added to the reaction solution and incubated with shaking at room temperature for 60 minutes. Then, an anti-phosphorylated tyrosine antibody coupled with a europium compound and streptavidin coupled with modified allophycocyanin XL665 were added to the reaction, and continuously incubated with shaking at room temperature for 1 hour. After incubation, fluorescence intensity values of each well at an excitation wavelength of 304 nm, and emission wavelengths of 620 nm and 665 nM were determined in a TF-FRET mode on a microplate reader. Compared with the fluorescence intensity ratio of a control group (0.1% DMSO), the percentage inhibition rates of the compound at each concentration were calculated, and the IC50 value of the compound was obtained by performing nonlinear regression analysis for logarithmic value of the compound concentration - inhibition rate by GraphPad Prism 5 software, which can be seen in Table 1. Table 1 IC50 data of the compounds of the present invention on TRK enzyme activity inhibition

TRKC = biological target: T3, TRKC (Homo sapiens, UniProt Q16288); experiment: HTRF KinEASE-TK kinase activity inhibition assay, TRKC; format: biochemical; conditions: ATP 50 µM
T3 construct: purchased Carna bioscience 08-197
T3 sequence (Q16288 32-839): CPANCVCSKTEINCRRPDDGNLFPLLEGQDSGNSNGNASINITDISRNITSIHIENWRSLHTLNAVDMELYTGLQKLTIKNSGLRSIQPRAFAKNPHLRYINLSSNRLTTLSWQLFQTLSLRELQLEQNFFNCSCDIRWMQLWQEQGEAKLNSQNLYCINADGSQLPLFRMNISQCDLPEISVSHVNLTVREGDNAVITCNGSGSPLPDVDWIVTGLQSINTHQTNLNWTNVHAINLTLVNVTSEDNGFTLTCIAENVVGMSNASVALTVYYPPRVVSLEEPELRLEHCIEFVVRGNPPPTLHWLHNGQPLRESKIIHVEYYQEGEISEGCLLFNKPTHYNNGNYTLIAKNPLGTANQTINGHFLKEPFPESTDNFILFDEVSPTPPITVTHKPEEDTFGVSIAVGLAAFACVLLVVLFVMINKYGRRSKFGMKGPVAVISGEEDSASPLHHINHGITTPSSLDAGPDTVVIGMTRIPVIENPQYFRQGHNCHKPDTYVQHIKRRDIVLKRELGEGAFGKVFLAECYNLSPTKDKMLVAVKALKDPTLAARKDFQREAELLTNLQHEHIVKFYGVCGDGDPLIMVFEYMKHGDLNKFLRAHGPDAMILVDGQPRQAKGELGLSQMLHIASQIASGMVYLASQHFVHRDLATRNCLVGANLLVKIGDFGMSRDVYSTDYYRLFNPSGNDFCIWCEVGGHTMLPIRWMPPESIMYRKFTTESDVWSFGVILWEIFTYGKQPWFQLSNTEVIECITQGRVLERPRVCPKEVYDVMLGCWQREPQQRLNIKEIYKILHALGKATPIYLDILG
Text: as §1, §2

BAF3 LMNA-TRKA^G595R = experiment: Cell proliferation assay (CellTiter-Glo), BAF3 LMNA-TRKA G595R; format: cell-based; conditions: Mus musculus, 72 hours
Method: The following method was used to determine the effects of the compounds of the present invention on cell proliferation. […] For TRKA, BAF3 LMNA-TRKA^G595R stably transformed cell line was constructed by BAF3 cells. The above cell line was used to determine the inhibition of the compounds on cell activity. […] The cells were cultured in a 5% CO2 incubator at 37°C. The activity of the cells were determined by CellTiter-Glo® Luminescent Cell Viability Assay kit (Promega, article number: G7573).
The experimental methods were operated according to the steps in the kit instruction, and were briefly described as follows: a test compound was first dissolved in DMSO to prepare a storage solution, and then diluted in gradient with the corresponding cell culture medium to prepare a test sample. […] Cells in logarithmic growth phase were inoculated into a 96-well cell culture plate at a suitable density, and the cells were cultured in a 5% CO2 incubator at 37°C overnight. After adding the sample of the test compound, the cells were continuously cultured for 72 hours. After the culture, 50 µL of CellTiter-Glo detection solution was added to each well, shaken for 5 minutes, and then stood for 10 minutes, and the luminescence values of each well were read on the microplate reader using a Luminance mode.

TRKC(G623R) = biological target: T4, TRKC(G623R) (Homo sapiens, UniProt Q16288, G623R); experiment: HTRF KinEASE-TK kinase activity inhibition assay, TRKC(G623R); format: biochemical; conditions: ATP 100 µM
T4 construct: purchased SignalChem N18-12CH-10
T4 sequence (Q16288 32-839 G623R): as the sequence (Q16288 32-839) above, with G592R counted along it
Text: as §1
as §2, with “Then, an anti-phosphorylated tyrosine antibody coupled with a europium compound and streptavidin coupled with modified allophycocyanin XL665 were added to the reaction, and continuously incubated with shaking at room temperature for 1 hour.” left out, “Table 1 IC50 data of the compounds of the present invention on TRK enzyme activity inhibition” left out

[1] = test system: H2228 (human lung cancer cells); experiment: Cell proliferation assay (CellTiter-Glo), H2228; format: cell-based; conditions: NCI-H2228, 72 hours, EML4-ALK fusion
Text: The following method was used to determine the effects of the compounds of the present invention on cell proliferation. H2228 cells (containing EML4-ALK fusion) were purchased from Cell Resource Center of Shanghai Institutes for Biological Sciences, Chinese Academy of Sciences. KARPAS-299 cells (containing NPM-ALK fusion) were purchased from Nanjing COBIOER Biotechnology Co., Ltd. The above two cell lines were used to determine the inhibition of the compounds on cell activities. The cells were cultured in an RPMI 1640 medium containing 10% fetal bovine serum, 100 U penicillin, 100 µg/mL streptomycin, and 1 mM Sodium Pyruvate. The cells were cultured in a 5% CO2 incubator at 37°C. The activity of the cells was determined by CellTiter-Glo® Luminescent Cell Viability Assay kit (Promega, article number: G7573).
The experimental methods were operated according to the steps in the kit instruction, and were briefly described as follows: a test compound was first dissolved in DMSO to prepare a storage solution, and then diluted in gradient with the corresponding cell culture medium to prepare a test sample. […] After the culture, 50 µL of CellTiter-Glo detection solution was added to each well, shaken for 5 minutes, and then stood for 10 minutes, and the luminescence values of each well were read on the microplate reader using a Luminance mode. […]

T1 sequence (Q9UM73 19-1620): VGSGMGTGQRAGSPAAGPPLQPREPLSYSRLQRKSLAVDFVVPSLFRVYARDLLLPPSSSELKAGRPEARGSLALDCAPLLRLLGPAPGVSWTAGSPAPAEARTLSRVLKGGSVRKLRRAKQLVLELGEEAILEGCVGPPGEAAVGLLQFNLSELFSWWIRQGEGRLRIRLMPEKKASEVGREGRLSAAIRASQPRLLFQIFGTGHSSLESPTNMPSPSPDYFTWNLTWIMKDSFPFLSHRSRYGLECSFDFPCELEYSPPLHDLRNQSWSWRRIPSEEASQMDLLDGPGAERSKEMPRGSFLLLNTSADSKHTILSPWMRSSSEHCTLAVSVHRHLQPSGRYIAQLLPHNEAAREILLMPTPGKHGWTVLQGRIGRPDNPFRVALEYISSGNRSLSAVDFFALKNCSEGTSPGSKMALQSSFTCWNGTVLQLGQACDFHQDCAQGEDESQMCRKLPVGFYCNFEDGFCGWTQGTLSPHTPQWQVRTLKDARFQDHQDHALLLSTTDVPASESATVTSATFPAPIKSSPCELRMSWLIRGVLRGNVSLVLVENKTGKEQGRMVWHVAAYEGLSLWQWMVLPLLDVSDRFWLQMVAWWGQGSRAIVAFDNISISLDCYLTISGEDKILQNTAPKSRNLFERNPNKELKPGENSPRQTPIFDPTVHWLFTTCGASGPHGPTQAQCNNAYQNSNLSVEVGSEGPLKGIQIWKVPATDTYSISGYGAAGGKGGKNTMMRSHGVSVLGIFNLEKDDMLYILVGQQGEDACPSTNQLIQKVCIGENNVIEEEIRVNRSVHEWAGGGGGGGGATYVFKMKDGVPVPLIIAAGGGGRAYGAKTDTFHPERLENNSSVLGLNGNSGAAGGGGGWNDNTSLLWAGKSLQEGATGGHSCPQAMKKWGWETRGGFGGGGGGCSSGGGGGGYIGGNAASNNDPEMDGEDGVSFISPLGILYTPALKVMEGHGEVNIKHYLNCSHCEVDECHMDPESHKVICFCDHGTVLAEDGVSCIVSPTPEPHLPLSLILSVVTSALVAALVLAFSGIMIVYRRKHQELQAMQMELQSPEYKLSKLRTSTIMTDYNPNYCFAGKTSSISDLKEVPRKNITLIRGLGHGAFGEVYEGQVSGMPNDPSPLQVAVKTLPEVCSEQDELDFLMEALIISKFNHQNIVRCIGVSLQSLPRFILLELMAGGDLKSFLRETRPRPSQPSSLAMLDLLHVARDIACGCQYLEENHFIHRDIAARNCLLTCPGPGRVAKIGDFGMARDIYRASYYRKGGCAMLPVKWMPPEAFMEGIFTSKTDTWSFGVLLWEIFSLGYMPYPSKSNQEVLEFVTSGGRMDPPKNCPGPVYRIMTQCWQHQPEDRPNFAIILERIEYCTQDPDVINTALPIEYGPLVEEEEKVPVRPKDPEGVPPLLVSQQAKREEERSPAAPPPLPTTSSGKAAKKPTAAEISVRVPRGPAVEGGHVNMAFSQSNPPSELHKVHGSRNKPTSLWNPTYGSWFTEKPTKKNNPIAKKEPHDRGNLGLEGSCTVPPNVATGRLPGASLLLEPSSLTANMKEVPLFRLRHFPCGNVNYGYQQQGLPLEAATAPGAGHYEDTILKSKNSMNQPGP

| IC50 (ALK) [nM] | IC50 (TRKA(G667C)) [nM] | IC50 (TRKC) [nM] | IC50 (BAF3 LMNA-TRKA^G595R) [nM] | IC50 (TRKC(G623R)) [nM] | IC50 [1] [nM] | Compound |
| --- | --- | --- | --- | --- | --- | --- |
| 1.93 | 9.5 | 0.7 | 2.2 | – | – | C[C@H]1Nc2ccn3nc(N)c(c3n2)C(=O)NC[C@@]2(C)Cc3cc(F)cc1c3O2 [Example 25, (3R,11R)-16-amino-6-fluoro-3,11-dimethyl-10-oxa-2,13,17,18,21-pentaazapentacyclo[13.5.2.1^8,11.0^4,9. 0^18,22]tricosa-1(21),4,6,8,15(22),16,19-heptaen-14-one] |
| 2.02 | – | 0.22 | 3.1 | 13.5 | 164 | C[C@H]1Nc2ccn3ncc(c3n2)C(=O)NC[C@@]2(C)Cc3cc(F)cc1c3O2 [Example 8, (3R,11R)-6-fluoro-3,11-dimethyl-10-oxa-2,13,17,1 8,21-pentaazapentacyclo[13.5.2.1^8,11.0^4,9.0^18,22]tric osa-1(21),4,6,8,15(22),16,19-heptaen-14-one] |
